Earlier results as cited in US20070117867A1, “Kit comprising three independent compositions and methods for building muscle, increasing strength, increasing muscle size, increasing muscle performance and reducing muscle fatigue” (priority 2005, published 2007).

Legend:
protein synthesis = details: for the purposes of muscle growth and development
muscle = details: Creatine supplementation

Compound: CC(C)C[C@H](N)C(=O)O [Leucine]
- protein synthesis (protein synthesis): directly activate

Compound: CN(CC(=O)O)C(=N)N [Creatine]
- concentration of Creatine in the muscle (muscle): increase
- resynthesis of Phosphocreatine (muscle; within 2 minutes of recovery following exercise): increase

Compound: O=C(O)CCCCC1CCSS1 (stereo not drawn) [Alpha Lipoic Acid]
- body's utilization of blood sugar (type II diabetics): significantly increase
